According to patent EP1258527A1, “Membrane-associated shingomyelinase derived from bovine brain, isolation method therfor and anti-sphingomyelinase monocional antibody” (SK Corporation, priority 2001, dated 2002):
“Also recorded” adds a separate entry of the source. Read-outs that look alike come from different tables or passages of the source.

Legend:
[1] = system: partially purified N-mSMase; conditions: partially purified rat brain N-mSMase (Liu et al.); cited from earlier work
[2] = system: N-mSMase ε; assay: N-mSMase activity assay: influence of cations, reducing agents and surfactants on enzyme activity; assay type: biochemical, bovine; conditions: for influence of reducing agents on N-mSMase ε activity: 0.5-10 mM, relative to control without reducing agent; for influence of agents similar to glutathione on N-mSMase ε activity: 1, 3, 5 or 10 mM; for inhibition of activity at 10 mM: glutathione concentration of 10 mM
Protocol: (§1) After being dried with a nitrogen stream, [N-methyl-^14 C]sphingomyelin (choline residue labeled with ^14C) was suspended in ethanol. 10 µl of a sample was mixed with 100 µl of a reaction solution (10 mM MgSO4, 50 µM [N-methyl-^14 C]sphingomyelin (c.a. 60,000 cpm), 2 mM sodium deoxycholate, 100 mM Tris-HCl (pH 7.0)) and incubated at 37 °C for 30 min. Addition of 320 µl of a mixture of chloroform/methanol (1:1 volume ratio) and 30 µl of 2N hydrochloride stopped the reaction. After vortexing and centrifuging the resulting mixture at 10,000xg, 200 µl of the aqueous layer was mixed with 2.5 ml of a scintillation cocktail, such as that manufactured by Packard Instrument Co., U.S.A., identified as "Insta gel-XF", followed by measuring the radioactivity with the aid of a Packard Tricarb liquid β-scintillation counter.
(§2) Separately, the same Lineweaver-Burk analysis was carried out, but in the presence of 0.4, 1.0 and 2.0 mM sodium deoxycholate.
In order to examine the dependency of N-mSMase ε activity on Mg^2+, Fraction B obtained in Step 6 of Example 1 was desalted by being applied to a PD-10 column (Sephadex G-25, Pharmacia Biotechnology Co., Sweden). For use, the column was equilibrated twice with distilled water, in advance. The desalted protein fraction (corresponding to protein 10 ng) was measured for N-mSMase ε activity in the presence of 1, 5, 10 and 25 mM of MgCl2 in the manner described in Experimental Example 1.
An examination was made of the influence of other cations, such as Ca^2+, Fe^3+, Fe^2+, Zn^2+, Cu^2+ and […] on the activity of N-mSMase ε. To a solution containing the desalted protein fraction (corresponding to protein 10 ng) obtained in C and 5 mM MgCl2, CaCl2, FeCl3, FeCl2, ZnCl2 or CuCl2 was added to yield a final concentration of 0.01, 0.02, 0.05, 0.1, 0.25 or 0.5 mM, followed by the measurement of N-mSMase ε activity in accordance with the procedure of Experimental Example 1.
After the addition of 10 µl of [N-methyl-^14C]sphingomyelin, the N-mSMase activity was measured according to the procedure of Experimental Example 1. For comparison, a Tris-HCl buffer containing no reducing agents was used as a control. The N-mSMase ε activity influenced by the reducing agents was expressed as a percentage relative to the control.
After being treated with 1, 3, 5 or 10 mM of GSSG, cystein, cystein-glycine or γ-glutaric acid-cystein, the activity of N-mSMase ε was measured in the same manner.
Sodium deoxycholate and Triton X-100 were selected as surfactants to be tested. The protein fraction obtained in C (corresponding to 10 ng of protein) was measured for N-mSMase ε activity in reaction solutions containing 0.5, 1, 2 and 5 mM of sodium deoxycholate, respectively, in accordance with the procedure of Experimental Example 1. In the case of Triton X-100, it was prepared at concentrations of 0.05, 0.01, 0.5 and 0.1 %.

[3] = system: N-mSMase ε, membrane-associated, Mg^2+-dependent, neutral pH optimum sphingomyelinase (60 kDa) from bovine brain; assay: Lineweaver-Burk kinetic analysis (N-mSMase activity assay); assay type: biochemical
Protocol: as §1
The N-mSMase ε prepared in Step 6 of Example 1 was subjected to Lineweaver-Burk analysis. In this regard, enzyme N-mSMase ε was used at amounts of 10 ng or less with the substrate sphingomyelin varying, in concentration, from 6.25 to 100 µM.
as §2

[4] = cation chloride added at 0.01-0.5 mM in the presence of 5 mM MgCl2, read-out: IC50 (inhibition of enzyme activity, hydrolysis of sphingomyelin)

O[C@H](CS)[C@H](O)CS (racemic) [DTT, dithiothreitol]
effect on activity of partially purified N-mSMase [1]: promoted
influence of reducing agents on N-mSMase ε activity [2]: not inhibited
influence of reducing agents on N-mSMase ε activity ([2]; listed as dithiothreitol): neither dithiothreitol nor 2-mercaptoethanol has any influence

N[C@@H](CCC(=O)N[C@@H](CS)C(=O)O)C(=O)O [γ-glutaric acid-cystein]
influence of agents similar to glutathione on N-mSMase ε activity [2]: inhibited; also recorded: reduction in the activity

OCCS [2-mercaptoethanol]
influence of reducing agents on N-mSMase ε activity [2]: not inhibited; also recorded: neither dithiothreitol nor 2-mercaptoethanol has any influence

N[C@@H](CS)C(=O)O [cystein]
influence of agents similar to glutathione on N-mSMase ε activity [2]: inhibited; also recorded: reduction in the activity

[Cl-].[Cl-].[Mg+2] [Mg^2+, MgCl2]
dependency of N-mSMase ε activity on Mg^2+ ([2]; 1, 5, 10 and 25 mM MgCl2, desalted fraction): Mg^2+-concentration dependent

[Cl][Cu][Cl] [Cu^2+, CuCl2]
IC50 [2, 4]: 28 µM

[Ca+2].[Cl-].[Cl-] [Ca^2+, CaCl2]
influence on the activity of N-mSMase ε ([2]; concentration of 0.5 mM or less, 5 mM MgCl2): no influence

sodium deoxycholate
effect on Km value of N-mSMase ε ([2]; Lineweaver-Burk analysis in the presence of 0.4, 1.0 and 2.0 mM sodium deoxycholate): could not change

sphingomyelin
Km ([3]; substrate sphingomyelin 6.25 to 100 µM, enzyme 10 ng or less, absence of surfactants): 47 µM
Km value in the presence of sodium deoxycholate ([3]; substrate sphingomyelin, 0.4, 1.0 and 2.0 mM sodium deoxycholate): could not change

[Cl-].[Cl-].[Zn+2] [Zn^2+, ZnCl2]
IC50 [2, 4]: 32 µM

N[C@@H](CCC(=O)N[C@@H](CS)C(=O)NCC(=O)O)C(=O)O [glutathione]
IC50 ([2]; glutathione 0.5-10 mM, preincubation 37 °C 10 min, read-out: IC50 (inhibition of sphingomyelinase activity)): 8000 µM
inhibition of activity at 10 mM [2]: completely inhibited
inhibition of activity at 10 mM ([2]; listed as Glutathione): fully inhibited
change of activity with concentration up to 3 mM ([2]; glutathione up to 3 mM): increases

phosphatidylserine
effect on activity of partially purified N-mSMase [1]: promoted

oxidized glutathione [GSSG]
influence of agents similar to glutathione on N-mSMase ε activity [2]: inhibited; also recorded: reduction in the activity
